Read-outs that look alike come from different tables or passages of the source. Each block holds one molecule with its values, some of them ahead of it.
Assays:
[1] = cited from earlier work; for hygroscopicity (in words) / stability (in words): as described in the cited patent or publication
[2] = Storage of crystalline azithromycin monohydrate under ambient conditions (25° C. and 60% relative humidity); type: physicochemical
From the text: (§1) The drying step in step (d) may be performed in stages. To achieve the desired water content, the isolated precipitate may first be dried for a period of time; and then dried for a subsequent period of time. Water content may be conveniently determined at different stages to ensure that a specified water content is achieved. Drying time and conditions may be easily optimized by one skilled in the art. Water content determination is in accordance to U.S. Pharmacopeia (USP) <921> Method I, which is incorporated herein by reference in its entirety.
(§2) (i) Chromatographic Conditions—The purity of a crystalline azithromycin monohydrate sample was determined using a high performance liquid chromatography (HPLC) instrument with a variable wavelength detector. The chromatographic conditions were: (i) Column—Xterra RP-18, endcapped 5 μm, 250×4.6 mm or equivalent; (ii) Flow Rate—1.0 mL/min; (iii) Column temperature—28° C.; (iv) Detection—UV at 215 nm; (v) Injection volume—20 μL; (vi) Run time—30 min; and, (vii) Mobile phase,Borate buffer pH=9.5: Acetonitrile (1:1, v/v). The mobile phase was prepared by adding NaOH (5N) to a solution of boric acid (about 1.2 grams) in water (1,000 mL; HPLC grade) to obtain a pH of 9.5.
(§3) (ii) Standard Solution for Purity Determination—A standard solution for purity determination was prepared by dissolving azithromycin monohydrate (about 50 mg, accurately weighed), in sufficient acetonitrile to fill a 25 mL volumetric flask. The azithromycin monohydrate used in the standard solution was prepared according to the procedure set forth in U.S. Pat. No. 6,268,489.
(§4) (iii) Preparation of Crystalline Azithromycin Monohydrate Sample Solution—A crystalline azithromycin monohydrate sample solution was prepared by transferring approximately 50 mg of the crystalline azithromycin monohydrate sample to be assayed into a 25 mL volumetric flask and diluting to volume with acetonitrile.
(§5) (iv) HPLC Protocol—The retention time of azithromycin was about 20 minutes. The retention time of azaerythromycin was about 13 minutes. Six replicates of the standard solution for determination of impurities, and 5 replicates of the standard solution for purity determination were injected into the HPLC system. The relative standard deviation of 5 replicate injections of the standard solution for purity determination was not more than 2.0%. The relative standard deviation of 6 replicate injections of the standard solution for determination of impurities was not more than 5.0%. If necessary, the mobile phase composition and/or flow rate were adjusted to meet the chromatographic parameters. The limit of detection for azaerythromycin was 0.04%. The limit of quantitation for azaerythromycin was 0.04%. The limit of detection for azithromycin was 0.04%. The limit of quantitation for azithromycin was 0.05%.
(§6) [formula] The terms are defined as follows: (i) Wst=Weight of standard in mg; (ii) Wsm=Weight of sample in mg; (iii) Ssm=Peak area of azithromycin obtained from sample solution; (iv) Sst=Average peak area of azithromycin obtained from standard solution for purity determination; (v) Pst=Purity of azithromycin standard in percent; and (vi) Msm=Water content of sample in percent. (B) Determination of Ethanol Content of Crystalline Azithromycin Monohydrate
(§7) The hygroscopicity of a crystalline azithromycin monohydrate was determined by monitoring its water content during storage. Specifically, the water content of the crystalline azithromycin monohydrate was determined at time zero and at various times thereafter during storage (e.g., 1, 2, and 3 months) under ambient conditions and accelerated conditions.

[3] = Storage of crystalline azithromycin monohydrate under accelerated conditions (40° C. and 75% relative humidity); type: physicochemical
From the text: as §1, §2, §3, §4, §5, §6, §7

[4] = 3 months at 25° C. and 60% relative humidity
[5] = 25° C., 60% relative humidity, 0 months
[6] = 25° C., 60% relative humidity, 3 months
[7] = 3 months at 40° C. and 75% relative humidity
[8] = 40° C., 75% relative humidity, 0 months
[9] = 40° C., 75% relative humidity, 1 month
[10] = 40° C., 75% relative humidity, 2 months
[11] = 40° C., 75% relative humidity, 3 months

SMILES: CC[C@H]1OC(=O)[C@H](C)[C@@H](O[C@H]2C[C@@](C)(OC)[C@@H](O)[C@H](C)O2)[C@H](C)[C@@H](O[C@@H]2O[C@H](C)C[C@H](N(C)C)[C@H]2O)[C@](C)(O)C[C@@H](C)CN(C)[C@H](C)[C@@H](O)[C@]1(C)O [azithromycin dihydrate]
hygroscopicity (in words) [1]: non-hygroscopic | stability (in words) [1]: stable

hygroscopicity (in words) [2, 4]: non-hygroscopic | stability (in words) [2, 4]: stable | water content after storage (in words) ([2]; 3 months under ambient conditions): remained substantially unchanged | degradation products present after storage ([2]; 3 months, ambient (room temperature)): less than 2 % (w/w) | Appearance [2, 5]: White crystalline | Azaerythromycin [2, 5]: 0.3% | Other Impurities, RRT = 0.23 [2, 5]: RRT = 0.23, % = 0.10 | Other Impurities, RRT = 0.26 [2, 5]: RRT = 0.26, % = 0.20 | Other Impurities, RRT = 0.34 [2, 5]: RRT = 0.34, % = 0.10 | Other Impurities, RRT = 0.42 [2, 5]: RRT = 0.42, % = 0.30 | Other Impurities, RRT = 0.45 [2, 5]: RRT = 0.45, % = 0.07 | Other Impurities, RRT = 0.48 [2, 5]: RRT = 0.48, % = 0.20 | Other Impurities, RRT = 1.45 [2, 5]: RRT = 1.45, % = 0.05 | Other Impurities, RRT = 1.50 [2, 5]: RRT = 1.50, % = 0.20 | Other Impurities, RRT = 1.56 [2, 5]: RRT = 1.56, % = 0.10 | Purity [2, 5]: 100.10% | Total Impurities [2, 5]: 1.60% | Water content [2, 5]: 5.9% | pH [2, 5]: 10.4 | Appearance [2, 6]: White crystalline | Azaerythromycin [2, 6]: 0.3% | Other Impurities, RRT = 0.10 [2, 6]: RRT = 0.10, % = 0.20 | Other Impurities, RRT = 0.24 [2, 6]: RRT = 0.24, % = 0.10 | Other Impurities, RRT = 0.35 [2, 6]: RRT = 0.35, % = 0.10 | Other Impurities, RRT = 0.43 [2, 6]: RRT = 0.43, % = 0.30 | Other Impurities, RRT = 0.46 [2, 6]: RRT = 0.46, % = 0.07 | Other Impurities, RRT = 0.49 [2, 6]: RRT = 0.49, % = 0.20 | Other Impurities, RRT = 0.81 [2, 6]: RRT = 0.81, % = 0.10 | Other Impurities, RRT = 0.84 [2, 6]: RRT = 0.84, % = 0.08 | Other Impurities, RRT = 1.50 [2, 6]: RRT = 1.50, % = 0.20 | Other Impurities, RRT = 1.55 [2, 6]: RRT = 1.55, % = 0.10 | Purity [2, 6]: 98.70% | Total Impurities [2, 6]: 1.80% | Water content [2, 6]: 5.8% | pH [2, 6]: 10.2 | degradation after storage ([3]; 3 months (at least about 3 months), 40° C. and 75% relative humidity): less than 2 % (w/w) | hygroscopicity (in words) [3, 7]: non-hygroscopic | stability (in words) [3, 7]: stable | water content after storage (in words) ([3]; 3 months under accelerated conditions): remained substantially unchanged | Appearance [3, 8]: White | Azaerythromycin [3, 8]: 0.3% | Other Impurities, RRT = 0.23 [3, 8]: % = 0.10 | Other Impurities, RRT = 0.26 [3, 8]: % = 0.20 | Other Impurities, RRT = 0.34 [3, 8]: % = 0.10 | Other Impurities, RRT = 0.42 [3, 8]: % = 0.30 | Other Impurities, RRT = 0.45 [3, 8]: % = 0.07 | Other Impurities, RRT = 0.48 [3, 8]: % = 0.20 | Other Impurities, RRT = 1.45 [3, 8]: % = 0.05 | Other Impurities, RRT = 1.50 [3, 8]: % = 0.20 | Other Impurities, RRT = 1.56 [3, 8]: % = 0.10 | Purity [3, 8]: 100.10% | Total Impurities [3, 8]: 1.60% | Water content [3, 8]: 5.9% | pH [3, 8]: 10.4 | Appearance [3, 9]: White | Azaerythromycin [3, 9]: 0.4% | Other Impurities, RRT 0.23 [3, 9]: 0.23, 0.10% | Other Impurities, RRT 0.26 [3, 9]: 0.26, 0.20% | Other Impurities, RRT 0.35 [3, 9]: 0.35, 0.10% | Other Impurities, RRT 0.38 [3, 9]: 0.38, 0.05% | Other Impurities, RRT 0.43 [3, 9]: 0.43, 0.30% | Other Impurities, RRT 0.46 [3, 9]: 0.46, 0.08% | Other Impurities, RRT 0.48 [3, 9]: 0.48, 0.20% | Other Impurities, RRT 1.50 [3, 9]: 1.50, 0.20% | Other Impurities, RRT 1.56 [3, 9]: 1.56, 0.20% | Purity [3, 9]: 101.00% | Total Impurities [3, 9]: 1.80% | Water content [3, 9]: 5.9% | pH [3, 9]: 10.0 | Appearance [3, 10]: White | Azaerythromycin [3, 10]: 0.3% | Other Impurities, RRT 0.23 [3, 10]: 0.23, 0.10% | Other Impurities, RRT 0.25 [3, 10]: 0.25, 0.20% | Other Impurities, RRT 0.34 [3, 10]: 0.34, 0.10% | Other Impurities, RRT 0.42 [3, 10]: 0.42, 0.40% | Other Impurities, RRT 0.45 [3, 10]: 0.45, 0.05% | Other Impurities, RRT 0.48 [3, 10]: 0.48, 0.20% | Other Impurities, RRT 1.50 [3, 10]: 1.50, 0.20% | Other Impurities, RRT 1.56 [3, 10]: 1.56, 0.10% | Purity [3, 10]: 99.50% | Total Impurities [3, 10]: 1.70% | Water content [3, 10]: 5.8% | pH [3, 10]: 10.3 | Appearance [3, 11]: White | Azaerythromycin [3, 11]: 0.3% | Other Impurities, RRT 0.14 [3, 11]: 0.14, 0.20% | Other Impurities, RRT 0.24 [3, 11]: 0.24, 0.10% | Other Impurities, RRT 0.35 [3, 11]: 0.35, 0.20% | Other Impurities, RRT 0.43 [3, 11]: 0.43, 0.40% | Other Impurities, RRT 0.46 [3, 11]: 0.46, 0.07% | Other Impurities, RRT 0.49 [3, 11]: 0.49, 0.20% | Other Impurities, RRT 0.81 [3, 11]: 0.81, 0.06% | Other Impurities, RRT 0.85 [3, 11]: 0.85, 0.05% | Other Impurities, RRT 1.50 [3, 11]: 1.50, 0.20% | Other Impurities, RRT 1.55 [3, 11]: 1.55, 0.08% | Purity [3, 11]: 98.10% | Total Impurities [3, 11]: 1.90% | Water content [3, 11]: 5.7% | pH [3, 11]: 10.3 | degradation after storage ([3]; at least 3 months at 40° C. and 75% relative humidity): less than 2% | change in the water content after storage ([3]; at least about 3 months at 40° C. and 75% relative humidity): less than 5%
SMILES: CC[C@H]1OC(=O)[C@H](C)[C@@H](O[C@H]2C[C@@](C)(OC)[C@@H](O)[C@H](C)O2)[C@H](C)[C@@H](O[C@@H]2O[C@H](C)C[C@H](N(C)C)[C@H]2O)[C@](C)(O)C[C@@H](C)CN(C)[C@H](C)[C@@H](O)[C@]1(C)O.O [crystalline azithromycin monohydrate]

SMILES: CC[C@H]1OC(=O)[C@H](C)[C@@H](OC2CC(C)(OC)C(O)C(C)O2)[C@H](C)[C@@H](OC2OC(C)CC(N(C)C)C2O)[C@](C)(O)C[C@@H](C)CN(C)[C@H](C)C(O)[C@]1(C)O (stereo partly drawn) [azithromycin, 9-deoxo-9a-aza-9a-methyl-9a-homoerythromycin A]
stability under acidic conditions ([1]; acidic conditions, U.S. Pat. No. 6,586,576 B2): unstable

SMILES: CC[C@H]1OC(=O)[C@H](C)[C@@H](O[C@H]2C[C@@](C)(OC)[C@@H](O)[C@H](C)O2)[C@H](C)[C@@H](O[C@@H]2O[C@H](C)C[C@H](N(C)C)[C@H]2O)[C@](C)(O)C[C@@H](C)CN(C)[C@H](C)[C@@H](O)[C@]1(C)O [azithromycin monohydrate]
hygroscopicity (in words) [1]: hygroscopic | stability (in words) [1]: unstable

SMILES: CC[C@H]1OC(=O)[C@H](C)[C@@H](O[C@H]2C[C@@](C)(OC)[C@@H](O)[C@H](C)O2)[C@H](C)[C@@H](O[C@@H]2O[C@H](C)C[C@H](N(C)C)[C@H]2O)[C@](C)(O)C[C@@H](C)CN(C)[C@H](C)[C@@H](O)[C@]1(C)O.O [azithromycin monohydrate form]
hygroscopicity (in words) [1]: non-hygroscopic | stability (in words) [1]: stable

— patent US7683162B2, “Process of preparing a crystalline azithromycin monohydrate” (Taro Pharmaceutical Industries Limited, priority 2004, dated 2010)
